Measurements published in patent US8536332B2, “Modulating signal transduction pathways with substituted pyridol [2,3-b] pyrazines” (Aeterna Zentaris GmbH, priority 2007, dated 2013).

What was measured:
p110alpha H107R = conditions: cited from earlier work
PI3Kalpha = biological target: T1, PI3Kalpha (Homo sapiens, UniProt P42336); assay: Cell-free kinase assay PI3K-ALPHA; assay type: biochemical
T1 construct: purchased Upstate #14-602
Procedure: (§1) The inhibitory effect of the compounds of the invention was tested on various human serine/threonine kinases, tyrosine kinases and lipid kinases in enzymatic assays. Recombinant human kinases, for example PI3Kalpha, -beta, -gamma, -delta, Erk2, p38alpha, p38gamma, Jnk1, Jnk2 and others were used, in some cases as full-length kinases, in some cases as truncated fragments—but at least consisting of the functional kinase domains. The commercial kinase proteins (Proqinase, Upstate) were used as recombinant fusion proteins with GST (glutathione S-transferase) tag or His tag. Depending on the substrate type, the different kinase reactions were quantified by suitable ALPHA™ beads (PerkinElmer).
(§2) The kinase assays for PI3K and Erk are described in detail and selected test results are cited below. […] Subsequently, the kinase reaction was stopped by adding the ALPHA bead mix (10 μg/ml, #6760603/PerkinElmer), preincubated with 1 nM GST:Grp1 fusion protein (Upstate) and […] (#C-39B6/Echelon) in 50 mM Hepes, 50 mM NaCl, 50 mM EDTA and 0.1% BSA, and left to stand overnight. • b) Erk2-ALPHA: The test substance, 0.625 ng of Erk2 (#14-173, Upstate), 10 μM ATP and 15 nM biotinylated MBP (myelin basic protein) substrate were incubated on a 384-well Optiplate (Perkin Elmer) in a volume of 15 μl for 1 h in 25 mM Tris, 10 mM MgCl2, 0.1% Tween-20, 100 μM NaVO4, 2 mM DTT at pH 7.5. The kinase reaction was stopped by adding 10 μl of the ALPHA bead mix (10 μg/ml, #6760617/PerkinElmer), pre-incubated with anti-phospho MBP antibody (320 pM, #05-429/Upstate), in 25 mM Tris, 200 mM NaCl, 100 mM EDTA and 0.3% BSA, and left to stand overnight.
(§3) The luminiscence was detected the next morning in a Fusion™ alpha instrument (Perkin Elmer).
(§4) The calculation of % inhibition values per substance concentration was done by means of the following formula from the raw data determined in the Fusion™ alpha:
(§5) The controls were determined 8 fold and the substance samples 2 fold. 0% control contained neither any ATP nor any substrate. The 100% control contained no test substance. The IC50 values were determined with GraphPadPrism.

Erk2 = biological target: T2, Erk2 (Mus musculus, UniProt P63085); assay: Cell-free kinase assay Erk2-ALPHA; assay type: biochemical, human; conditions: 10 μM ATP
T2 construct: purchased Upstate #14-173
T2 sequence (P63085 whole entry): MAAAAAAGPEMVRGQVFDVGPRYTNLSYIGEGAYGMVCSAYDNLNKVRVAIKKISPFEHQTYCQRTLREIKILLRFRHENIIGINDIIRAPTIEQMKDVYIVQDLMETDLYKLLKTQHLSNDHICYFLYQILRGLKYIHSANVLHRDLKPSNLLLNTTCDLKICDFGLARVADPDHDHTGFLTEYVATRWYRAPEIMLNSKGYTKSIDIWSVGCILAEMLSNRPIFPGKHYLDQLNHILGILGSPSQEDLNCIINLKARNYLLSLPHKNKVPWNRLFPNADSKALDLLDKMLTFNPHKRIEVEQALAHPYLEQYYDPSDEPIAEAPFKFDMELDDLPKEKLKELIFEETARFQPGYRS
Procedure: as §1, §2, §3, §4, §5

p38alpha = p38alpha (Homo sapiens, UniProt Q16539); assay: Cell-free kinase assay (ALPHA technology) p38alpha; assay type: biochemical; conditions: 10 μM ATP
Chain of p38alpha (Q16539 whole entry): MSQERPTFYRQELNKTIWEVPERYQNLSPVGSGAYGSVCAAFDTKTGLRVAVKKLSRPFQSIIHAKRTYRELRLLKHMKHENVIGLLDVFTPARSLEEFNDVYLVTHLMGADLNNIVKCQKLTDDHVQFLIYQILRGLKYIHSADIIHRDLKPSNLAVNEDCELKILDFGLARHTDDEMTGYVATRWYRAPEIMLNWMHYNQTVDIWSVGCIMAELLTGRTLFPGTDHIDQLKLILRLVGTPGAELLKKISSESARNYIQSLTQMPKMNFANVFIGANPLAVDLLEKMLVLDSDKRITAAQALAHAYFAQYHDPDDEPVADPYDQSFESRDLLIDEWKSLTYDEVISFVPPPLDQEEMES
Procedure: as §1, §2, §3, §4, §5

Jnk1 + Jnk2 = tested on: T3, Jnk1 + Jnk2; assay: Cell-free kinase assay (ALPHA technology) Jnk1 + Jnk2; assay type: biochemical, human; conditions: 10 μM ATP
T3 construct: fused on or other part: GST tag or His tag (commercial recombinant fusion proteins from Proqinase or Upstate)
Procedure: as §1, §2, §3, §4, §5

MDA-MB468 = assay: XTT assay, anti-proliferative activity, MDA-MB468; assay type: cell-based; conditions: Homo sapiens, MDA-MB-468; 45 h incubation
Procedure: (§6) The principle of this test is based on the intracellular reduction of the tetrazolium dye XTT (sodium 3′-[1-(phenylaminocarbonyl)-3,4-tetrazolium]bis(4-methoxy-6-nitro)benzenesulphonic acid, Sigma) to a formazan dye by mitochondrial dehydrogenases. The dye is formed only by metabolically active cells. Its photometrically measurable intensity is a quantitative indicator for the presence of living cells. The reduction in the dye formation as a result of incubation of the cells with substances serves as a parameter for the anti-proliferative activity.
(§7) The tumour cell lines (ATCC) were seeded in 96-well microtitre plates in a defined cell count (5000 cells/well for Hct116; 10000 cells/well for MDA MB468), and incubated overnight at 37° C., 5% CO2 and 95% air humidity. The test substances were made up as stock solutions (10 mM) in DMSO. […] The cell plates were then incubated for 45 h at 37° C., 5% CO2 and 95% air humidity.
(§8) For the detection reaction, the XTT substrate was mixed with PMS (N-methyldibenzopyrazine methylsulphate, Sigma) and added to the cells, to result in a final concentration of 325 μg of XTT/ml and 2.5 μg PMS/ml. The mixture was then incubated for 3 h at 37° C., 95% air humidity. Subsequently the formazan salt formed by cellular dehydrogenases was quantified at an absorption of 490 nm.
(§9) The evaluation of the % inhibition values was done by means of the following formula from the values for the optical densities measured in each case at 490 nm:
(§10) The controls were determined 8 fold, the substance samples 2 fold. 0% control contained no cells and the 100% control contained no test substance. The EC50 values were determined with GraphPadPrism.

Hct116 = assay: XTT assay, anti-proliferative activity, Hct116; assay type: cell-based; conditions: Homo sapiens, HCT-116; 45 h incubation
Procedure: as §6, §7, §8, §9, §10

Phospho-Akt (Ser 473) = assay: Cellular substrate phosphorylation (Western blotting), PI3K →pAkt; assay type: cell-based, human; conditions: for inhibition at 50 µM: Homo sapiens, 5 h; for inhibition of cellular phospho-Akt / PI3K-Akt pathway, in words: Western blotting, concentrations of 5-50 μM
Procedure: (§11) This method enables a statement of whether the kinase modulator investigated achieves the desired effect in a cellular context too, i.e., in this case, a substrate protein downstream of the target kinase is examined for its phosphorylation status. To this end, the cells incubated with substance are lysed and the overall protein is separated on a reducing polyacrylamide gel. Subsequently, the proteins are transferred to a PVDF membrane by Western blotting and the substrate bands sought are made visible with specific antibodies and a suitable detection method. The substrate proteins down-stream of the target kinases are detected simultaneously with an anti-phospho antibody which is specific in each case and a total antibody which recognizes the substrate total protein. The duplex technology of the ODYSSEY imager (LiCOR) enables this simultaneous measurement. The intensity of the total substrate bands is employed to normalize and quantify the phosphorylation inhibition or activation.
(§12) Suitable tumor cell lines (e.g. BxPC3, Hct116 or MDA MB468) were seeded into 6-well microtitre plates in a defined cell count (e.g. 350 000 cells/well for BxPC3 and Hct116) in the particular standard complete media and then incubated overnight at 37° C., 5% CO2 and 95% air humidity. Afterwards, the cells were incubated for 24 h under serum-reduced conditions, i.e. in the particular medium except at only 0.25% serum. The test substances were made up as stock solutions (10 mM) in DMSO and incubated with the cells at final concentrations of 5, 15.8 and 50 μM for 5 h. This was followed by cell lysis in 25 mM Tris, 150 mM NaCl, 10 mM sodium pyrophosphate, 2 mM EGTA, 25 mM beta-glycerophosphate, 25 mM NaF, 10% glycerol, 0.75% NP-40, 100 μM NaVO4 buffer. After protein quantification using the BCA (bicinchonic acid protein assay kit, Sigma) assay, amounts of protein of about 20 μg per track were separated on a Lämmli polyacrylamide gel and then transferred onto a PVDF membrane (Millipore) by semi-dry Western blotting at 0.8 mA/cm^2 for 1 h. This was followed by prehybridization of the membrane for 1 hour in I-block reagent (Applied Biosystems) and overnight simultaneous incubation with the specific antibodies. […] After the membrane had been washed, the secondary antibodies were incubated with anti-rabbit IR Dye 800 (#611-732-127, Rockland) for the phospho antibodies and anti-goat Alexa Fluor 680 (#A-21081, […]) for the total protein antibodies. After incubation for 30 min at room temperature in the dark, the hybridization of the detection antibody was detected on the membrane by scanning in an ODYSSEY imager (LiCOR).

Phospho-p90RSK (S380) = assay: Cellular substrate phosphorylation (Western blotting), Erk →pRsk; assay type: cell-based, human; conditions: for inhibition at 50 µM: Homo sapiens, 5 h; for inhibition of phospho-Rsk / Raf-Mek-Erk pathway, in words: Western blotting, concentrations of 5-50 μM
Procedure: as §11, §12

[1] = Cell-free kinase assay Erk2-ALPHA; assay type: biochemical, human; conditions: cell-free kinase assay; MAPK = Erk2, p38alpha, Jnk1+Jnk2 of Table 1
Procedure: as §1, §2, §3, §4, §5

T1 sequence (P42336 whole entry): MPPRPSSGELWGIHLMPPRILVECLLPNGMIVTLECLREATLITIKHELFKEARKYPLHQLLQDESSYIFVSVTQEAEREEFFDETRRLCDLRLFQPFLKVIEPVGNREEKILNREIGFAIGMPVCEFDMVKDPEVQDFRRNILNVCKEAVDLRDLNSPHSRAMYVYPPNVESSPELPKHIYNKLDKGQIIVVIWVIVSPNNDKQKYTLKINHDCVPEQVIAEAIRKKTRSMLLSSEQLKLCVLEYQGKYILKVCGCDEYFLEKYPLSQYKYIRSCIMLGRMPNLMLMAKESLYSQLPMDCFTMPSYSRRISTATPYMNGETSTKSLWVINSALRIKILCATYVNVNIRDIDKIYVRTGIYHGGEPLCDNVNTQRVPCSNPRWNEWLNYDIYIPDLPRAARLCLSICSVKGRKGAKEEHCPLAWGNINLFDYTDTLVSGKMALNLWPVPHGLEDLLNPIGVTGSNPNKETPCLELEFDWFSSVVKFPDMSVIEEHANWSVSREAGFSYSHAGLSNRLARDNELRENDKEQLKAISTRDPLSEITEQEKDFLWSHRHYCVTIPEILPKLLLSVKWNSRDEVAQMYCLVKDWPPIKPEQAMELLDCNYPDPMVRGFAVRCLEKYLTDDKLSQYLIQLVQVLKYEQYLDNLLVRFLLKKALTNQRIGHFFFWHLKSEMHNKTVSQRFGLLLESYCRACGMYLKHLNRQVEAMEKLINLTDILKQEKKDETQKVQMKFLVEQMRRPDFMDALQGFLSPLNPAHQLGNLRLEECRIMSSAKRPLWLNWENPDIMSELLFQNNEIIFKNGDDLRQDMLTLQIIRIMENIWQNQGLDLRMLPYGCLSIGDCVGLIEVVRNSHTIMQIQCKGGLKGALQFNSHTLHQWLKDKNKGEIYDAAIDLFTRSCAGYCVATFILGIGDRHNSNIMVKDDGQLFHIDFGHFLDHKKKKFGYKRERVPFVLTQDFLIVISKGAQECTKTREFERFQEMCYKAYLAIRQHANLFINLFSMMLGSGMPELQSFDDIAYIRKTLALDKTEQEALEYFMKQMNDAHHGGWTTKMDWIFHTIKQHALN
T1 sequence (P27986 whole entry partner): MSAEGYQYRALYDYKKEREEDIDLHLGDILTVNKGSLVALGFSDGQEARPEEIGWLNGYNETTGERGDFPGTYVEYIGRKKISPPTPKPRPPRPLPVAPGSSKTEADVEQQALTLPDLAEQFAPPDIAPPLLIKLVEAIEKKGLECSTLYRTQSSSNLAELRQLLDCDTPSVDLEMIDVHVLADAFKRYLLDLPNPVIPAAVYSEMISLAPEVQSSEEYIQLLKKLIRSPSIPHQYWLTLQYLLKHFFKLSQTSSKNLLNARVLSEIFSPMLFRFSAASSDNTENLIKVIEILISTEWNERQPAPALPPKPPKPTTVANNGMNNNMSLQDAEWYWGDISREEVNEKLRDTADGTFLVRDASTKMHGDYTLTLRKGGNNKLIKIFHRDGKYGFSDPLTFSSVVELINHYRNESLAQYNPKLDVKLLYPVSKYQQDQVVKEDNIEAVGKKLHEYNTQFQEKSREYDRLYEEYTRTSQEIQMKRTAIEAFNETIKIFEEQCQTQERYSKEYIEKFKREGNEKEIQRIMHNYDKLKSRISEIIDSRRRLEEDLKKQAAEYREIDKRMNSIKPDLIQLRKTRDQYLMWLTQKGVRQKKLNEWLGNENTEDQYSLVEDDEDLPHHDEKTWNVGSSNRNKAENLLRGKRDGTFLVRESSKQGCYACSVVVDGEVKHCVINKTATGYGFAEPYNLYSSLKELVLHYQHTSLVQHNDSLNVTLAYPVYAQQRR

PI3K inhibition, in words (PI3Kalpha) | IC50 (Erk2) [µM] | IC50 (p38alpha) [µM] | IC50 (Jnk1 + Jnk2) [µM] | EC50 (MDA-MB468) [µM] | EC50 (Hct116) [µM] | Erk2 / MAPK inhibition, in words [1] | melting point [°C] | Structure (SMILES) | IC50 (p110alpha H107R) [µM] | inhibition at 50 µM (Phospho-Akt (Ser 473)) [%] | inhibition of cellular phospho-Akt / PI3K-Akt pathway, in words (Phospho-Akt (Ser 473)) | inhibition at 50 µM (Phospho-p90RSK (S380)) [%] | inhibition of phospho-Rsk / Raf-Mek-Erk pathway, in words (Phospho-p90RSK (S380))
 |  |  |  |  |  |  |  | Cn1c(=O)n(-c2ccc(C(C)(C)C#N)cc2)c2c3cc(-c4cnc5ccccc5c4)ccc3ncc21 [BEZ-235] | 0.018 |  |  |  | 
low IC50 values against PI3K | > 100 | > 100 | > 10 | < 1 | < 2 |  |  | CCNC(=O)Nc1cnc2ccc(-c3ccc(O)c(OC)c3)nc2n1 [Compound 5, 1-Ethyl-3-[6-(4-hydroxy-3-methoxy-phenyl)-pyrido[2,3-b]pyrazin-3-yl]-urea] |  | 100 | total inhibition of cellular phospho-Akt at compound concentrations <50 μM | 0 | phospho-Rsk is not inhibited
inhibition of PI3K | < 0.5 | > 100 | < 1 | < 10 | < 10 | inhibition of PI3K and Erk2 | > 270 | CCNC(=O)Nc1ccc2ncc(-c3ccc(OC)c(O)c3)nc2n1 [Compound 46, 1-Ethyl-3-[3-(3-hydroxy-4-methoxy-phenyl)-pyrido[2,3-b]pyrazin-6-yl]-urea] |  | 40 | inhibit both | 100 | inhibit both
PI3K inhibition | > 100 | > 100 | > 100 | < 10 | < 5 | no or only moderate MAPK inhibition | 195 to 200 | CCNC(=O)Nc1ccc2ncc(Nc3ccc(O)c(C(=O)OC)c3)nc2n1 [Compound 50, 5-[6-(3-Ethyl-ureido)-pyrido[2,3-b]-pyrazin-3-ylamino]-2-hydroxy-benzoic acid methyl ester] |  | 100 | cellular PI3K selectivity | 0 | do not block the Raf-Mek-Erk pathway
inhibition of PI3K | < 0.5 | > 100 | < 31.6 | < 5 | < 5 | inhibition of PI3K and Erk2 | 227 to 229 | CCNC(=O)Nc1ccc2ncc(-c3ccc(OC(C)=O)c(OC)c3)nc2n1 [Compound 54, Acetic acid 4-[6-(3-ethyl-ureido)-pyrido[2,3-b]pyrazin-3-yl]-2-methoxy-phenyl ester] |  | 100 | inhibit both | 90 | inhibit both
PI3K inhibition | > 100 | < 10 | > 100 | < 5 | < 5 | no or only moderate MAPK inhibition | 243 to 246 | CCNC(=O)Nc1ccc2ncc(Nc3ccccc3O)nc2n1 [Compound 55, 1-Ethyl-3-[3-(2-hydroxy-phenylamino)-pyrido[2,3-b]pyrazin-6-yl]-urea] |  | 90 | cellular PI3K selectivity | 0 | do not block the Raf-Mek-Erk pathway
PI3K inhibition | < 10 | < 10 | > 10 | < 5 | < 10 | no or only moderate MAPK inhibition | 270 to 273 | CCNC(=O)Nc1ccc2ncc(Nc3cccc(O)c3)nc2n1 [Compound 56, 1-Ethyl-3-[3-(3-hydroxy-phenylamino)-pyrido[2,3-b]pyrazin-6-yl]-urea] |  | 100 | cellular PI3K selectivity | 0 | do not block the Raf-Mek-Erk pathway
PI3K inhibition | > 100 | > 10 | > 100 | < 5 | < 5 | no or only moderate MAPK inhibition |  | CCNC(=O)Nc1ccc2ncc(Nc3cccc(OC(F)F)c3)nc2n1 [Compound 73, 1-[3-(3-Difluoromethoxy-phenylamino)-pyrido[2,3-b]pyrazin-6-yl]-3-ethyl-urea] |  |  |  |  | 
 | > 100 | > 100 | > 100 | < 10 | < 10 |  | > 270 | CCNC(=O)Nc1cnc2ccc(-c3ccc(O)c(Cl)c3)nc2n1 [Compound 637, 1-[6-(3-Chloro-4-hydroxy-phenyl)-pyrido[2,3-b]pyrazin-3-yl]-3-ethyl-urea] |  |  |  |  | 
